The results in this text go back to article PMC12670396, “Crizotinib- or Ceritinib-Conjugated Platinum(IV) Prodrugs As Potent Multiaction Agents Inducing Antiproliferative Effects in 2D and 3D Cancer Cell Models” (Journal of Medicinal Chemistry, 2025).

The structures appear in SMILES notation.

Series [1] can be described thus: Stability in RPMI cell culture medium with serum (HPLC). As to conditions: serum. As for the experimental part: Two conditions must be met for Pt(IV) complexes to serve as true prodrugs: they must remain stable in biological fluids and should be activated by reduction within the cancer cells to release the bioactive components in their active form, thereby facilitating the rapid onset of cytotoxic effects. […] The reduction in the area of the HPLC peak of the compounds was monitored as a function of time, and their half-lives were calculated (Table and Figures S26,S27).
The stock solutions were prepared by dissolving the compounds in a 1:9 (v/v) mixture of DMSO and RPMI media. After preparation, the samples were injected and stored at 37 °C throughout the experiment. The final concentration of the complexes used for the experiment is 50–60 μM.

Series [2] can be described thus: Reduction by L-ascorbic acid in phosphate buffer (RP-HPLC). The series is classed as physicochemical. As for the experimental part:
The reduction of Pt(IV) complexes was performed by reacting with 10 equiv of L-ascorbic acid in 10% DMSO in 100 mM phosphate buffer (pH 7.4) at 37 °C, and was monitored by reverse-phase analytical HPLC. The half-lives for the reduction were calculated from the decreasing peak areas as a function of time.
The reduction of the Pt(IV) complexes was performed in the presence of 10 equiv of L-ascorbic acid (AA) in phosphate buffer (100 mM, pH 7.4) at 37 °C using reverse-phase analytical HPLC. […] The platinum complexes were dissolved in 10% DMSO with 50% MeOH and added to 100 mM phosphate buffer (pH 7.4). […] The samples were injected and stored at 37 °C throughout the experiment.

The next series deals with HCT116. Put plainly: MTT cytotoxic/antiproliferative activity, 72 h. As to conditions: for IC50: HCT116, MTT, 72 h. It is filed as cell-based, human.
For series [3], the system named is hepatocyte-like cells (HLC). Put plainly: Cytotoxicity in hepatocyte-like cells, sulphorhodamine B assay. The series is classed as cell-based. As to conditions: hepatocyte-like cells from human pluripotent cells. The method, then:
Growth inhibition activity in cancer cell lines was compared with the activity to inhibit the proliferation of normal (noncancerous) cells, namely MRC-5, IMR-90, hTERT-HPNE, and MCF10A cells. Selectivity indexes (SI) were calculated as (IC50 in noncancerous cells)/(average IC50 in cancer cells). […] We further assessed the toxicity of several of the compounds in hepatocyte-like cells (HLC) generated from human pluripotent cells.
Cytotoxicity in hepatocyte-like cells (HLC). STEMdiff Hepatocyte Kit was used to generate HLC from human pluripotent stem cells. Cytotoxicity of several of the tested compounds in HLC was evaluated using the sulphorhodamine B assay.
Background: The SRB assay estimates cell density from bound dye.

Series [4] deals with NCI-H2228 cells. Put plainly: Cell cycle distribution (PI, flow cytometry). It is filed as cell-based, human. As to conditions: NCI-H2228, 2 × IC50, 48 h. The method, then:
The alterations in cell cycle profiles caused by the tested agents in NCI-H2228 cells may offer insight into their anticancer mechanism. To examine these changes, we utilized flow cytometry to analyze the cells treated with the representative agents (Figure and Figure S40).
It appears that the G2/M arrest is a common phenomenon in the crizotinib-containing group of NCI-H2228 cells under the conditions used.
Following 48 h of incubation, the cells were harvested and fixed with 70% ethanol. The next day, the cells were washed with PBS (2×) and stained with propidium iodide (PI) (50 μg mL^–1 with 100 μg mL^–1 RNase A) in Vindel’s solution (10 mM Tris-Cl (pH = 8.0), 10 mM NaCl, 0.1% Triton X-100) for 30 min at 37 °C. Cell cycle distribution was analyzed using flow cytometry (FACS Verse), 3 × 10^4 cells were analyzed following the exclusion of cell aggregates, and the data was analyzed with FCS Express 7 (DeNovo software, Glendale, CA). The results are expressed as MEAN from two experiments.

The subject of series [5] is NCI-H2228 cells. Put plainly: Cell death mode (Annexin V/PI, flow cytometry). The series is classed as cell-based, human. As to conditions: NCI-H2228, 3 × IC50, 48 h. From the text:
Flow cytometric analysis was used to assess the mode of cell death induced in NCI-H2228 cells by the tested complexes. Annexin V staining was employed to recognize the externalization of phosphatidyl serine, a feature considered an apoptotic marker. Propidium iodide (PI) was used to stain cells with compromised cell membranes (a sign of necrosis). Staurosporine was included in the experiment as a positive control for apoptosis. […] Apoptosis appears to be the leading mode of cell death in the entire group of tested compounds, with a varying distribution of cell populations between early and late apoptosis.
Staurosporine (4 μM; 2 h) was used as a positive control of apoptosis. The cells were then harvested with trypsin and stained with Annexin V-Pacific Blue conjugate (1:20 dilution) and PI (10 μg mL^–1) for 15 min. The samples were analyzed with flow cytometry (FACS Verse), 3 × 10^4 cells were analyzed following the exclusion of cell aggregates, and the data was analyzed with FCS Express 7 (DeNovo software, Glendale, CA).

A further series addresses T1, ALK (Homo sapiens, UniProt Q9HC35+Q9UM73).
T1 construct: Western blot detection of the ALK phosphorylation state in lysates of NCI-H2228 cells exposed to the tested compounds; endogenous in cells; host or cells: NCI-H2228
Put plainly: Western blot of ALK phosphorylation state. It is filed as cell-based. Conditions: NCI-H2228 lysates, IC50 concentrations, 24 h. As for the experimental part:
(§1) Whereas the signals of pALK and pMET are decreased in the presence of the tested compounds, the overall amount of ALK and MET is not markedly changed.
(§2) NCI-H2228 cells were seeded in 6-well plates at a density of 2 × 10^5 cells/well and incubated overnight. […] The cells were then harvested and lysed using RIPA lysis buffer supplemented with protease and phosphatase inhibitors as recommended by the manufacturer. Protein extracts were resolved with SDS-PAGE, transferred to a PVDF membrane, and the respective proteins were detected with specific antibodies (anti-phosphoALK, anti-ALK, anti-phosphoMET, anti-MET, and anti-GADPH) and HRP-conjugated secondary antibodies. The signals were obtained with SignalFire ECL Reagent and recorded with an Amersham680 reader.
Background: In western blotting, separated proteins are transferred to a membrane and probed.

Another series deals with T2, MET (Homo sapiens, UniProt P08581).
T2 construct: Western blot analysis of the phosphorylation state of ALK and MET; endogenous in cells; host or cells: NCI-H2228
Put plainly: Western blot of MET phosphorylation state. As to conditions: NCI-H2228 lysates, IC50 concentrations, 24 h. The series is classed as cell-based. The method, then: as §1, §2

A further series has as its system CT26 or NCI-H2228 cells. Put plainly: Release of ATP (CLSII bioluminescence assay). Conditions: IC50 concentrations, 20 h. It is filed as cell-based. As for the experimental part:
ATP release was analyzed using the CLSII bioluminescence assay kit (Roche) after treatment of CT26 or NCI-H2228 cells with the tested compounds at concentrations corresponding to their respective IC50 values (Figure A).
CT26 and NCI-H2228 cells were seeded in 48-well plates at a density of 5 × 10^4 cells/well and grown overnight. […] Then 50 μL of supernatant from the wells was transferred into a 96-well white plate (Corning) and processed using an ATP bioluminescence assay kit CLSII following the manufacturer’s instructions. Luminescence was measured with a SPARK multimode reader (TECAN).

T2 sequence (P08581 25-1390): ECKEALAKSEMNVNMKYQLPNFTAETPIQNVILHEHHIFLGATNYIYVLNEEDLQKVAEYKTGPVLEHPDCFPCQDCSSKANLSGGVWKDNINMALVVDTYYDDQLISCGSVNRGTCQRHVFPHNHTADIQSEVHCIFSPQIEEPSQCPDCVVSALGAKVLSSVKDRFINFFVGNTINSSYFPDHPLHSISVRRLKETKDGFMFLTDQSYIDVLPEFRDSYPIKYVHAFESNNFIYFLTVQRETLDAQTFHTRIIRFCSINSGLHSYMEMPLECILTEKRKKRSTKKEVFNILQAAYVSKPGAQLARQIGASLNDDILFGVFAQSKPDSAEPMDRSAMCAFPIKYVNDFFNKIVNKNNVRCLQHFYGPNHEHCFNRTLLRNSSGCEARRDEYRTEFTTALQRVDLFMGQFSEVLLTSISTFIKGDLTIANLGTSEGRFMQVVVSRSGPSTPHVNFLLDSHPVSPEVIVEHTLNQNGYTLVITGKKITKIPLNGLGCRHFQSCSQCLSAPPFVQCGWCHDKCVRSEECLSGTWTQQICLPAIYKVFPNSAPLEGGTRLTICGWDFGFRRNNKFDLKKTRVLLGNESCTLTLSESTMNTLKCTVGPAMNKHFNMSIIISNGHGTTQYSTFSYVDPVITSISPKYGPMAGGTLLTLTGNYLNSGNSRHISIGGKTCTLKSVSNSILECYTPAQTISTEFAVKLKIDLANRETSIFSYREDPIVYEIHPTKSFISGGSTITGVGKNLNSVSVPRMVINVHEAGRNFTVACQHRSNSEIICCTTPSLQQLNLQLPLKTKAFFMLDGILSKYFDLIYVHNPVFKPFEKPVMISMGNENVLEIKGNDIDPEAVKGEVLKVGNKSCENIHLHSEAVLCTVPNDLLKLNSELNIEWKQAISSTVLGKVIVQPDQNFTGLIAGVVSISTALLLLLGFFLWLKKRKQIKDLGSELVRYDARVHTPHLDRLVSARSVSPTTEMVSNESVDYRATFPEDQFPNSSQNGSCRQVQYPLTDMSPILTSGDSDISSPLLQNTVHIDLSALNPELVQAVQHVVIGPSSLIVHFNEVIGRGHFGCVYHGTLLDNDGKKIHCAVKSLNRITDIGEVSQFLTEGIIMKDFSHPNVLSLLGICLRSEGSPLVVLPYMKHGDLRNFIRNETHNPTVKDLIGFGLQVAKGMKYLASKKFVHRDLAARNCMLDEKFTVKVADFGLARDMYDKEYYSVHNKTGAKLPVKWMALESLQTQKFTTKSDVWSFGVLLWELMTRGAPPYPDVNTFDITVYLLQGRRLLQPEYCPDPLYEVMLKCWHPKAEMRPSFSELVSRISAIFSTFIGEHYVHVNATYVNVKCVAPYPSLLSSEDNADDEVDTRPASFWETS
T1 sequence (Q9HC35+Q9UM73 fused): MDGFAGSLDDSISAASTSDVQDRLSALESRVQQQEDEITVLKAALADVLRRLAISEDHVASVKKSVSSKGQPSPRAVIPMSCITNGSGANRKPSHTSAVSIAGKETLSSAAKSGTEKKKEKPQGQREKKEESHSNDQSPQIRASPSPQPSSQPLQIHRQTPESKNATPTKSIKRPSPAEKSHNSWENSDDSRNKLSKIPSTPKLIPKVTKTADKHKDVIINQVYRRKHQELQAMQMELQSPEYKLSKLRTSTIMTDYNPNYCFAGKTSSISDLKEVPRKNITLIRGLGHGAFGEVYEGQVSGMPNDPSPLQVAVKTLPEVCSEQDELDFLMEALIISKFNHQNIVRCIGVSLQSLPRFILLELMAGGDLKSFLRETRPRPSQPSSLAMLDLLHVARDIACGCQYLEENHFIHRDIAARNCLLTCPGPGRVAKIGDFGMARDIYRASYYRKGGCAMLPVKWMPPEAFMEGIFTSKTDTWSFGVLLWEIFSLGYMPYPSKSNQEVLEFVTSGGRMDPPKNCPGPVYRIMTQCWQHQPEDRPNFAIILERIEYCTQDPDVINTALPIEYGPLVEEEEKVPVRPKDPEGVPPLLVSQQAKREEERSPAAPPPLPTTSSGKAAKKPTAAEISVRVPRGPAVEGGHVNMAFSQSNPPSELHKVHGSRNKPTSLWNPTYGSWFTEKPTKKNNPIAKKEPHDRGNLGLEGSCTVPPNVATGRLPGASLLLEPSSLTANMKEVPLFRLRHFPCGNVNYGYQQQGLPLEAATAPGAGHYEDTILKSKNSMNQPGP

One may read the IC50 as the midpoint of a concentration-inhibition curve. On to `CC(Oc1cc(-c2cnn(C3CCN(C(=O)[O][Pt]([Cl])([Cl])[O]C(=O)CCCc4ccccc4)CC3)c2)cnc1N)c1c(Cl)ccc(F)c1Cl.N.N` (centres unmarked) [compound 3, ctc-[Pt(NH3)2(crizotinib)(PhB)Cl2]], for which, in series [1], the “stability half-life (t 1/2)” value came out at 42 h. Also, the “reduction half-life (t 1/2)” value in series [2] (10 equiv L-ascorbic acid, 10% DMSO in 100 mM phosphate buffer pH 7.4, 37 °C) was 7.7 h. Also, the half-maximal inhibitory concentration (IC50) with HCT116 was 570 ± 90 nM; in [3] it was 5 ± 1 µM. Further, the cell cycle arrest result in the series on NCI-H2228 cells [4] is given as “induced arrest in the G2/M phase”. The “mode of cell death” value with NCI-H2228 cells [5] is “apoptotic phenotype”.

In turn, `N.N.[Cl][Pt][Cl]` [cisPt, cisplatin, reference compound] had an IC50 with HCT116 of 8800 ± 500 nM. In addition, the “phosphorylation of ALK” value on ALK is given as “no visible effect”. For the same molecule, the “phosphorylation of MET” value on MET is listed as “no visible effect”. For the same molecule, the “ATP released to the medium relative to nontreated cells” value with CT26 or NCI-H2228 cells was “did not induce a significant release of ATP”.

Regarding `Cc1cc(Nc2ncc(Cl)c(Nc3ccccc3S(=O)(=O)C(C)C)n2)c(OC(C)C)cc1C1CCN(C(=O)[O][Pt]([Cl])([Cl])[O]C(=O)CCCc2ccccc2)CC1.N.N` [compound 7, ctc-[Pt(NH3)2(ceritinib)(PhB)Cl2]], in [1], the “stability half-life (t 1/2)” value is listed as 37 h. Further, in series [2] (100 mM phosphate buffer pH 7.4), the “solubility in phosphate buffer” value is on record as “poor solubility”. The half-inhibitory concentration (IC50) in the series with HCT116 was 190 ± 60 nM; in [3], 4 ± 1 µM. Besides, in the series with HCT116 (HCT116, MIX3/3 or MIX7/7), the “IC50(MIX)/IC50(complex)” value is given as 3.1. Besides, the cell cycle arrest entry in the series with NCI-H2228 cells [4] is on record as “majority of the population in cells treated with 7 was in the S phase”. Moreover, the “mode of cell death” value with NCI-H2228 cells [5] was “apoptotic phenotype”. In addition, the “phosphorylation of ALK” value at ALK was “inhibit the phosphorylation”. In addition, the “phosphorylation of MET” value at MET is “inhibit the phosphorylation”. Further, the “ATP released to the medium relative to nontreated cells” value in the series on CT26 or NCI-H2228 cells was 2.7 fold.
